Assays:
[1] = molecular target: T1, human Smo (amino acids 181-787) (Homo sapiens, UniProt Q99835); experiment: Smo radioligand competition binding assay (displacement of 3H-PF-03451358 from HEK293 membranes); settings: for inhibition at 0.05 µM: read-out: SMO % inh. @ 0.05 μM; for IC50: radioligand competition binding
T1 construct: expressed in transfected cells; membrane preparation
Outline: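 Membranes (40 μg protein/well) from HEK293 expressing murine Igk-leader-fused Smo 181-787 incubated 2 h at room temperature with 3 nM 3H-PF-03451358 in Tris pH 7.5/NaCl/MgCl2/EDTA/BSA buffer; filter-bound counts by scintillation. Nonspecific binding with 30 μM cold PF-03451358; IC50 from four-parameter fit of % inhibition.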

Gli-Luc/MEF cells (Smo) = experiment: Gli-Luc/MEF assay (Shh-stimulated luciferase reporter under the Gli response element); assay type: cell-based, mouse
Outline: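 Mouse Gli-Luc/MEF cells dosed with compound (3-fold series, […]) plus 2 μg/mL recombinant mouse Shh, then incubated 48 h at 37° C, 5% CO2. Bright-Glo luminescence read; IC50 calculated from inhibition of Shh-stimulated luciferase.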

[2] = 0.05 μM test compound, displacement of 3H-PF-03451358

T1 sequence (Q99835 181-787): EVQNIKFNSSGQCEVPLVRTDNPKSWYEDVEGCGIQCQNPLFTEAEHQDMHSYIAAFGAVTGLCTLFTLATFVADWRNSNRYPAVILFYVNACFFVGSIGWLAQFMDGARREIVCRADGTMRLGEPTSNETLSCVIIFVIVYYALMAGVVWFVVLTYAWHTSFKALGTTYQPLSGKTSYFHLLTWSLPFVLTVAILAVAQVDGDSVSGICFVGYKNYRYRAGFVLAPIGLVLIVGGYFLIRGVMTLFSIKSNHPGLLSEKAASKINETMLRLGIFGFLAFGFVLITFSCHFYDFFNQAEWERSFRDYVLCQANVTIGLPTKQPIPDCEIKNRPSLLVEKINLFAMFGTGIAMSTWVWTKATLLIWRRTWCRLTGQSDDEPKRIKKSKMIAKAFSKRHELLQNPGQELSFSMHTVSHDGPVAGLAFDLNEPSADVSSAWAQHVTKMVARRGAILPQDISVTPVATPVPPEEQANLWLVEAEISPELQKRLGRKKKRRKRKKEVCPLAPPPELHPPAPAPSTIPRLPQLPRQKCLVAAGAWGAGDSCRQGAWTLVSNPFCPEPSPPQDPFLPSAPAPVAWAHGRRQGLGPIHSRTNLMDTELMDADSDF

Row | SMILES | inhibition at 0.05 µM [1, 2] | IC50 (Gli-Luc/MEF cells (Smo); Mus musculus, MEF, 48 h) | IC50 [1] | SMO % inh. @ 0.05 μM ([1]; 0.05 μM test compound, displacement of 3H-PF-03451358, 0.05 µM) | IC50 (Gli-Luc/MEF cells (Smo); 48 hours)
1 | Cc1nnc2n1CCN(c1cc(-c3nc4ccccc4n3C)c(Cl)cn1)C2 [Example A-117, 7-[5-chloro-4-(1-methyl-1H-benzimidazol-2-yl)pyridin-2-yl]-3-methyl-5,6,7,8-tetrahydro[1,2,4]triazolo[4,3-a]pyrazine] | 68% | 101 nM |  |  | 
2 | C[C@H]1CN(c2cc(-c3nc4ccccc4n3C)c(Cl)cn2)CCN1S(C)(=O)=O [Example A-161, 2-{5-chloro-2-[(3S)-3-methyl-4-(methylsulfonyl)piperazin-1-yl]pyridin-4-yl}-1-methyl-1H-benzimidazole] | 98% | 3 nM | 9 nM |  | 
3 | CN(C)CC(=O)N1CCN(c2cc(-c3nc4ccccc4n3C)c(Cl)cn2)CC1 [Example A-192, 2-{4-[5-chloro-4-(1-methyl-1H-benzimidazol-2-yl)pyridin-2-yl]piperazin-1-yl}-N,N-dimethyl-2-oxoethanamine] | 87% | 2.4 nM | 15 nM |  | 
4 | Cn1c(-c2cc(N3CCC(N4CCNC(=O)C4=O)CC3)ncc2Cl)nc2ccccc21 [Example A-98, 1-{1-[5-chloro-4-(1-methyl-1H-benzimidazol-2-yl)pyridin-2-yl]piperidin-4-yl}piperazine-2,3-dione] | 85% | 66 nM | 122 nM |  | 
5 | CC(=O)NCC1CCN(c2cc(-c3nc4ccccc4n3C)c(Cl)cn2)CC1 [Example A-87, N-({1-[5-chloro-4-(1-methyl-1H-benzimidazol-2-yl)pyridin-2-yl]piperidin-4-yl}methyl)acetamide] | 89% | 9 nM | 58 nM |  | 
6 | Cn1c(-c2cc(N3CC(NC(=O)C4CCOCC4)C3)ncc2Cl)nc2ccccc21 [Example A-205, N-{1-[5-chloro-4-(1-methyl-1H-benzimidazol-2-yl)pyridin-2-yl]azetidin-3-yl}tetrahydro-2H-pyran-4-carboxamide] | 93% | 14.2 nM |  |  | 
7 | Cn1c(-c2cc(N3CC(c4ncccn4)C3)ncc2Cl)nc2ccccc21 [Example A-131, 2-[5-chloro-2-(3-pyrimidin-2-ylazetidin-1-yl)pyridin-4-yl]-1-methyl-1H-benzimidazole] | 52% | 161 nM |  |  | 
8 | CC(=O)N1CCN(c2cc(-c3nc4ccccc4n3C)c(Cl)cn2)[C@H](C)C1 [Example A-168, 2-{2-[(2R)-4-acetyl-2-methylpiperazin-1-yl]-5-chloropyridin-4-yl}-1-methyl-1H-benzimidazole] | 97% | 7 nM | 8 nM |  | 
9 | CNC(=O)N1CCN(c2ccc(Cl)c(-c3nc4ccccc4n3C)n2)CC1 [Example B-3, 4-[5-chloro-6-(1-methyl-1H-benzimidazol-2-yl)pyridin-2-yl]-N-methylpiperazine-1-carboxamide] | 88% | 20 nM | 49 nM |  | 
10 | Cn1c(-c2cc(N3CCN(S(=O)(=O)CCO)CC3)ncc2F)nc2ccccc21 [Example D-15, 2-({4-[5-fluoro-4-(1-methyl-1H-benzimidazol-2-yl)pyridin-2-yl]piperazin-1-yl}sulfonyl)ethanol] | 101% | 11 nM | 19 nM |  | 
11 | COC(=O)NC1CN(c2cc(-c3nc4ccccc4n3C)c(Cl)cn2)C1 [Example A-44] | 89% | 22 nM | 59 nM |  | 
12 | Cc1nnc(C)n1C1CCN(c2cc(-c3nc4ccccc4n3C)c(Cl)cn2)CC1 [Example A-124, 2-{5-chloro-2-[4-(3,5-dimethyl-4H-1,2,4-triazol-4-yl)piperidin-1-yl]pyridin-4-yl}-1-methyl-1H-benzimidazole] | 59% | 52 nM |  |  | 
13 | Cn1c(-c2cc(N3CCCn4cnc(CO)c4C3)ncc2Cl)nc2ccccc21 [Example A-110, {8-[5-chloro-4-(1-methyl-1H-benzimidazol-2-yl)pyridin-2-yl]-6,7,8,9-tetrahydro-5H-imidazo[1,5-a][1,4]diazepin-1-yl}methanol] | 74% | 93 nM | 161 nM |  | 
14 | CN(CCS(C)(=O)=O)c1cc(-c2nc3ccccc3n2C)c(Cl)cn1 [Example A-72, 5-chloro-N-methyl-4-(1-methyl-1H-benzimidazol-2-yl)-N-[2-(methylsulfonyl)ethyl]pyridin-2-amine] | 94% | 12 nM | 25 nM |  | 
15 | Cn1c(-c2cc(N3CCC(OC(N)=O)CC3)ncc2Cl)nc2ccccc21 [Example A-203, 1-[5-chloro-4-(1-methyl-1H-benzimidazol-2-yl)pyridin-2-yl]piperidin-4-yl carbamate] | 94% | 12.5 nM | 11 nM |  | 
16 | Cn1c(-c2cc(N3CCC(O)(CN4CCOCC4)CC3)ncc2Cl)nc2ccccc21 [Example A-88, 1-[5-chloro-4-(1-methyl-1H-benzimidazol-2-yl)pyridin-2-yl]-4-(morpholin-4-ylmethyl)piperidin-4-ol] | 89% | 28 nM | 61 nM |  | 
17 | COCCc1[nH]nc2c1CN(c1cc(-c3nc4ccccc4n3C)c(Cl)cn1)CC2 [Example A-99, 5-[5-chloro-4-(1-methyl-1H-benzimidazol-2-yl)pyridin-2-yl]-3-(2-methoxyethyl)-4,5,6,7-tetrahydro-1H-pyrazolo[4,3-c]pyridine] | 84% | 28 nM | 84 nM |  | 
18 | Cn1c(-c2cc(N3CC(NS(=O)(=O)CCO)C3)ncc2Cl)nc2ccccc21 [Example A-200, N-{1-[5-chloro-4-(1-methyl-1H-benzimidazol-2-yl)pyridin-2-yl]azetidin-3-yl}-2-hydroxyethanesulfonamide] | 98% | 7.6 nM | 15 nM |  | 
19 | C[C@@H]1CN(S(C)(=O)=O)CCN1c1cc(-c2nc3ccccc3n2C)c(Cl)cn1 [Example A-166, 2-{5-chloro-2-[(2R)-2-methyl-4-(methylsulfonyl)piperazin-1-yl]pyridin-4-yl}-1-methyl-1H-benzimidazole] | 102% | 4 nM |  |  | 
20 | Cc1nnc2n1CCN(c1cc(-c3nc4ccccc4n3C)c(Cl)cn1)CC2 [Example A-67, 7-[5-chloro-4-(1-methyl-1H-benzimidazol-2-yl)pyridin-2-yl]-3-methyl-6,7,8,9-tetrahydro-5H-[1,2,4]triazolo[4,3-d][1,4]diazepine] | 94% | 26 nM | 33 nM |  | 
21 | Cn1c(-c2cc(N3CCN(S(C)(=O)=O)CC3)ncc2F)nc2ccccc21 [Example D-6, 2-{5-fluoro-2-[4-(methylsulfonyl)piperazin-1-yl]pyridin-4-yl}-1-methyl-1H-benzimidazole] | 97% | 22 nM | 12 nM |  | 
22 | C[C@H]1CN(S(C)(=O)=O)CCN1c1cc(-c2nc3ccccc3n2C)c(Cl)cn1 [Example A-196, 2-{5-chloro-2-[(2S)-2-methyl-4-(methylsulfonyl)piperazin-1-yl]pyridin-4-yl}-1-methyl-1H-benzimidazole] | 99% | 6.7 nM | 8 nM |  | 
23 | Cn1c(-c2cc(N3CCNC(=O)C3)ncc2Cl)nc2ccccc21 [Example A-174, 4-[5-chloro-4-(1-methyl-1H-benzimidazol-2-yl)pyridin-2-yl]piperazin-2-one] | 86% | 39 nM | 39 nM |  | 
24 | Cc1nc(CC2CN(c3cc(-c4nc5ccccc5n4C)c(Cl)cn3)CCO2)no1 (stereo not shown) [Example A-52, 2-(5-chloro-2-{2-[(5-methyl-1,2,4-oxadiazol-3-yl)methyl]morpholin-4-yl}pyridin-4-yl)-1-methyl-1H-benzimidazole] | 99% | 13 nM | 13 nM |  | 
25 | Cn1c(-c2cc(N3CCN(CCS(C)(=O)=O)CC3)ncc2Cl)nc2ccccc21 [Example A-61, 2-(5-chloro-2-{4-[2-(methylsulfonyl)ethyl]piperazin-1-yl}pyridin-4-yl)-1-methyl-1H-benzimidazole] |  |  | 18 nM | 96% | 73 nM
26 | Cn1c(-c2ccnc(N3CCCN(S(C)(=O)=O)CC3)c2)nc2ccccc21 [Example A-14, 1-methyl-2-{2-[4-(methylsulfonyl)-1,4-diazepan-1-yl]pyridin-4-yl}-1H-benzimidazole] | 84% | 84 nM | 31 nM |  | 
27 | Cn1c(-c2cc(N3CCC(NS(C)(=O)=O)C3)ncc2Cl)nc2ccccc21 (stereo not shown) [Example A-153, N-{1-[5-chloro-4-(1-methyl-1H-benzimidazol-2-yl)pyridin-2-yl]pyrrolidin-3-yl}methanesulfonamide] | 93% | 15 nM | 23 nM |  | 
28 | Cn1c(-c2nc(N3CCC(O)CC3)ccc2Cl)nc2ccccc21 [Example B-6, 1-[5-chloro-6-(1-methyl-1H-benzimidazol-2-yl)pyridin-2-yl]piperidin-4-ol] | 95% | 12 nM | 10 nM |  | 
29 | Cn1c(-c2nc(N3CCC(NS(C)(=O)=O)CC3)ccc2Cl)nc2ccccc21 [Example B-12, N-{1-[5-chloro-6-(1-methyl-1H-benzimidazol-2-yl)pyridin-2-yl]piperidin-4-yl}methanesulfonamide] | 100% | 1 nM | 10 nM |  | 

Reference: US20120157471A1, “BENZIMIDAZOLE DERIVATIVES” (PFIZER INC., priority 2009, published 2012)
